In ChEMBL document CHEMBL4507296 (2021):

Assays:
[1] = biological target: Cytoplasmic tyrosine-protein kinase BMX (Homo sapiens) (UniProt P51813); settings: Compound concentration 1000.0 nM
[2] = biological target: Cyclin-dependent kinase 4 (Homo sapiens) (UniProt P11802); settings: Compound concentration 1000.0 nM
[3] = biological target: Mitogen-activated protein kinase kinase kinase 9 (Homo sapiens) (UniProt P80192); settings: Compound concentration 1000.0 nM
[4] = biological target: Insulin-like growth factor 1 receptor (Homo sapiens) (UniProt P08069); settings: Compound concentration 1000.0 nM
[5] = biological target: BMP-2-inducible protein kinase (Homo sapiens) (UniProt Q9NSY1); settings: Compound concentration 1000.0 nM
[6] = biological target: 5-hydroxytryptamine receptor 1D (Homo sapiens) (UniProt P28221); settings: Compound concentration 10.0 uM
[7] = biological target: T1, Alpha-2B adrenergic receptor (Homo sapiens) (UniProt P18089); settings: Compound concentration 10.0 uM
T1 sequence (whole entry): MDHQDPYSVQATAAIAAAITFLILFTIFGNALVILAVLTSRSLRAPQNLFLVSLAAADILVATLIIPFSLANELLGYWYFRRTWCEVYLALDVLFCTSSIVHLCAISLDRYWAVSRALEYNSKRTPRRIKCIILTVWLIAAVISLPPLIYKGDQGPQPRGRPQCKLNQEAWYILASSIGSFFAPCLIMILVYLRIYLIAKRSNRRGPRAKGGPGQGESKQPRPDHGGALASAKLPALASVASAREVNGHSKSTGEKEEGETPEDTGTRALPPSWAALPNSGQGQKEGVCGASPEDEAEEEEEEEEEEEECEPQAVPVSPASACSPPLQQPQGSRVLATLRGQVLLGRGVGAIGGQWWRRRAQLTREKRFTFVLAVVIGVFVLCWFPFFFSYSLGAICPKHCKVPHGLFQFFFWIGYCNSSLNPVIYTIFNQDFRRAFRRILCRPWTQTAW

[8] = biological target: Tyrosine-protein kinase receptor UFO (Homo sapiens) (UniProt P30530); settings: Compound concentration 1000.0 nM
[9] = biological target: Casein kinase I isoform epsilon (Homo sapiens) (UniProt P49674); settings: Compound concentration 1000.0 nM
[10] = biological target: Cyclin-G-associated kinase (Homo sapiens) (UniProt O14976); settings: Compound concentration 1000.0 nM
[11] = biological target: Serine/threonine-protein kinase BRSK2 (Homo sapiens) (UniProt Q8IWQ3); settings: Compound concentration 1000.0 nM
[12] = biological target: Vascular endothelial growth factor receptor 1 (Homo sapiens) (UniProt P17948); settings: Compound concentration 1000.0 nM
[13] = biological target: Casein kinase I isoform gamma-2 (Homo sapiens) (UniProt P78368); settings: Compound concentration 1000.0 nM
[14] = biological target: Peripheral plasma membrane protein CASK (Homo sapiens) (UniProt O14936); settings: Compound concentration 1000.0 nM
[15] = biological target: LIM domain kinase 2 (Homo sapiens) (UniProt P53671); settings: Compound concentration 1000.0 nM
[16] = biological target: Kappa-type opioid receptor (Rattus norvegicus) (UniProt P34975); experiment: k-Opioid (rat) CEREP ligand profiling; settings: Compound concentration 10.0 uM
[17] = biological target: Ephrin type-A receptor 6 (Homo sapiens) (UniProt Q9UF33); settings: Compound concentration 1000.0 nM
[18] = biological target: Cyclin-dependent kinase 11B (Homo sapiens) (UniProt P21127); settings: Compound concentration 1000.0 nM
[19] = biological target: Serine/threonine-protein kinase WNK2 (Homo sapiens) (UniProt Q9Y3S1); settings: Compound concentration 1000.0 nM
[20] = biological target: 5-hydroxytryptamine receptor 2B (Homo sapiens) (UniProt P41595); settings: Compound concentration 10.0 uM
[21] = biological target: Receptor-interacting serine/threonine-protein kinase 4 (Homo sapiens) (UniProt P57078); settings: Compound concentration 1000.0 nM
[22] = biological target: Dual specificity protein kinase CLK2 (Homo sapiens) (UniProt P49760); settings: Compound concentration 1000.0 nM
[23] = biological target: Dual specificity tyrosine-phosphorylation-regulated kinase 2 (Homo sapiens) (UniProt Q92630); settings: Compound concentration 1000.0 nM
[24] = biological target: Serine/threonine-protein kinase WNK4 (Homo sapiens) (UniProt Q96J92); settings: Compound concentration 1000.0 nM
[25] = biological target: Citron Rho-interacting kinase (Homo sapiens) (UniProt O14578); settings: Compound concentration 1000.0 nM
[26] = biological target: Homeodomain-interacting protein kinase 4 (Homo sapiens) (UniProt Q8NE63); settings: Compound concentration 1000.0 nM
[27] = biological target: Serine/threonine-protein kinase Nek10 (Homo sapiens) (UniProt Q6ZWH5); settings: Compound concentration 1000.0 nM
[28] = biological target: Macrophage colony-stimulating factor 1 receptor (Homo sapiens) (UniProt P07333); settings: Compound concentration 1000.0 nM
[29] = biological target: Serine/threonine-protein kinase PLK1 (Homo sapiens) (UniProt P53350); settings: Compound concentration 1000.0 nM
[30] = biological target: Myosin light chain kinase family member 4 (Homo sapiens) (UniProt Q86YV6); settings: Compound concentration 1000.0 nM
[31] = biological target: Activin receptor type-2A (Homo sapiens) (UniProt P27037); settings: Compound concentration 1000.0 nM
[32] = tested on: Phosphatidylinositol 4,5-bisphosphate 3-kinase catalytic subunit alpha isoform (Homo sapiens), P42336 [C420R]; settings: Compound concentration 1000.0 nM
[33] = biological target: RAC-alpha serine/threonine-protein kinase (Homo sapiens) (UniProt P31749); settings: Compound concentration 1000.0 nM
[34] = biological target: Cyclin-dependent kinase 16 (Homo sapiens) (UniProt Q00536); settings: Compound concentration 1000.0 nM
Rattus norvegicus = species on record: Rattus norvegicus; settings: Compound concentration 10.0 uM
[35] = biological target: Mitogen-activated protein kinase kinase kinase kinase 3 (Homo sapiens) (UniProt Q8IVH8); settings: Compound concentration 1000.0 nM
[36] = biological target: Calcium/calmodulin-dependent protein kinase type 1 (Homo sapiens) (UniProt Q14012); settings: Compound concentration 1000.0 nM
[37] = biological target: Tyrosine-protein kinase JAK3 (Homo sapiens) (UniProt P52333); settings: Compound concentration 1000.0 nM
[38] = biological target: Mitogen-activated protein kinase 14 (Homo sapiens) (UniProt Q16539); settings: Compound concentration 1000.0 nM
[39] = biological target: Fibroblast growth factor receptor 3 (Homo sapiens) (UniProt P22607); settings: Compound concentration 1000.0 nM

Chain of Myosin light chain kinase family member 4 (Homo sapiens) (Q86YV6 whole entry): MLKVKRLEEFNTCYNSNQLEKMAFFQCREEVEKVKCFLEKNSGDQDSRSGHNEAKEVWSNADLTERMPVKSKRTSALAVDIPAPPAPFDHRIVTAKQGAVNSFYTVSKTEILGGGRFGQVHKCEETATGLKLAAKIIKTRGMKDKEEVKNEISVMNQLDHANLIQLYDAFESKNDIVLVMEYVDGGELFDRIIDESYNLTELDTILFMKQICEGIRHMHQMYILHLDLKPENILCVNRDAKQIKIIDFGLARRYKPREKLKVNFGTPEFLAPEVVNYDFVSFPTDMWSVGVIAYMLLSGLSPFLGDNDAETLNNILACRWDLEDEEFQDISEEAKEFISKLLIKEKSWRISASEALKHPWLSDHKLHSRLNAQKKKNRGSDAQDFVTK
Chain of Mitogen-activated protein kinase kinase kinase kinase 3 (Homo sapiens) (Q8IVH8 whole entry): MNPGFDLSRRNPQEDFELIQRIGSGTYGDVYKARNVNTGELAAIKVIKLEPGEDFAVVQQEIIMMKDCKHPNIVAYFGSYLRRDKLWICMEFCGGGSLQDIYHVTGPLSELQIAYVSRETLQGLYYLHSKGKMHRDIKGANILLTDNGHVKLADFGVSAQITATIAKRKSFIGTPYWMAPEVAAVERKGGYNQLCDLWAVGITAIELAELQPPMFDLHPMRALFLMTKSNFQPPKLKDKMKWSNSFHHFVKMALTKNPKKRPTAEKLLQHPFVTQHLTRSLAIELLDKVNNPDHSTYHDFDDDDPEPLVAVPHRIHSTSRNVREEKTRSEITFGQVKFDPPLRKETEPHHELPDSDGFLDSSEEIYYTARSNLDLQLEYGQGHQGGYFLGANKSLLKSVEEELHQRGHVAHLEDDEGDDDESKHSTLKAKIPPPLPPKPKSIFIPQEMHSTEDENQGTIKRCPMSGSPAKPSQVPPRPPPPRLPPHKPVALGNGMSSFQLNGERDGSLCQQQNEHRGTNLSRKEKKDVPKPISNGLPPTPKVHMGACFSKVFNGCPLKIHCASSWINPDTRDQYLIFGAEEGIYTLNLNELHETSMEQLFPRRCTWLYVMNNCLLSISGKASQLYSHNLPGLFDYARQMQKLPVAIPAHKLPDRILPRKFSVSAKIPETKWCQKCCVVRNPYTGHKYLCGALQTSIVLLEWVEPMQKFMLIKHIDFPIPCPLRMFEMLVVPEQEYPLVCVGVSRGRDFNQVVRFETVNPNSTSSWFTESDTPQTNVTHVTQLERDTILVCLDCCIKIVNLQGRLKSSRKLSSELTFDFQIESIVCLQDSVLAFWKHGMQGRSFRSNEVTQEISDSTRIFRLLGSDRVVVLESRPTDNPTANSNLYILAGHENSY
Chain of Dual specificity tyrosine-phosphorylation-regulated kinase 2 (Homo sapiens) (Q92630 whole entry): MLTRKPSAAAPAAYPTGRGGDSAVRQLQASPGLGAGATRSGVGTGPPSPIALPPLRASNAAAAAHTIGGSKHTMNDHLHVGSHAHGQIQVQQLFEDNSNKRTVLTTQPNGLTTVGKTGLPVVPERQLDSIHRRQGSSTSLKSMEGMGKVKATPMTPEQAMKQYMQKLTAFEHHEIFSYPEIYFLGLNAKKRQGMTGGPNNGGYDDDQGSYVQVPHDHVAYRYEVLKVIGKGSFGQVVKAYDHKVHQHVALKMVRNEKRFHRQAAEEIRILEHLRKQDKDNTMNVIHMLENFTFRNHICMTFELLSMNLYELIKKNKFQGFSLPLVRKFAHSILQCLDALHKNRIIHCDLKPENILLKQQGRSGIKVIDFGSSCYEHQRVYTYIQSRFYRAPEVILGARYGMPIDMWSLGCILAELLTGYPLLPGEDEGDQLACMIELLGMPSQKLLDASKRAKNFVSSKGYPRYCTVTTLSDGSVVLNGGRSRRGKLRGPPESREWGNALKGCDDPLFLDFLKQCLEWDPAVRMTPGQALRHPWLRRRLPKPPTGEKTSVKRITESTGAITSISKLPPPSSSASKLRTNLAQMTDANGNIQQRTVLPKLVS
Chain of Activin receptor type-2A (Homo sapiens) (P27037 whole entry, canonical isoform): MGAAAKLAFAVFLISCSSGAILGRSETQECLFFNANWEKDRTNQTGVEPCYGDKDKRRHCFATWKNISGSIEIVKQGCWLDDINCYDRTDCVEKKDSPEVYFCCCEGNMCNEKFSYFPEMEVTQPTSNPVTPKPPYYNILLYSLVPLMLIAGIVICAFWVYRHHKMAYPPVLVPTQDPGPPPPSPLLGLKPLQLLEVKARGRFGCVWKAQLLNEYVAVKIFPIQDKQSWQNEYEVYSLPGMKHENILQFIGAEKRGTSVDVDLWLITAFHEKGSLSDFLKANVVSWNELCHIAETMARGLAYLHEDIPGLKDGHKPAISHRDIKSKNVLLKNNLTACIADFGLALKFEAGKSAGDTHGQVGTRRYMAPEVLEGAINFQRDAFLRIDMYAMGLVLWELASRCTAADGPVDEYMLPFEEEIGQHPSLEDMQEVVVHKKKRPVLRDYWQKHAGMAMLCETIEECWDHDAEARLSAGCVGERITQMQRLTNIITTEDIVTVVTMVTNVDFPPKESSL
Chain of Serine/threonine-protein kinase PLK1 (Homo sapiens) (P53350 whole entry): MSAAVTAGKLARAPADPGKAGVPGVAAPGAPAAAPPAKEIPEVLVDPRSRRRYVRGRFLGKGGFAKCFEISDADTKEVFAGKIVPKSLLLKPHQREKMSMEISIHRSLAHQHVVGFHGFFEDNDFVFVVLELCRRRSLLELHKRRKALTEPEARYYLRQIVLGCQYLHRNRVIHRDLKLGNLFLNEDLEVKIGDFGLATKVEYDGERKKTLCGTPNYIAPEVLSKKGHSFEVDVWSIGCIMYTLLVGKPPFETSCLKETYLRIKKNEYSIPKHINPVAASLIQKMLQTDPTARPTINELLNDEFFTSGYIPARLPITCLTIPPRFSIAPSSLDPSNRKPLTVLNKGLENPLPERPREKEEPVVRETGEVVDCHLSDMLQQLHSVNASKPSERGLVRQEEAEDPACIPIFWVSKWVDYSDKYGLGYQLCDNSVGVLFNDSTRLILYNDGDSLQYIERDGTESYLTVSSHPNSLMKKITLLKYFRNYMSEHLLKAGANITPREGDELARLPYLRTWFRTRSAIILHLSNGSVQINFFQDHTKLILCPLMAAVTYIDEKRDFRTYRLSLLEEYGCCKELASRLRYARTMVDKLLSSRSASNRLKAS
Chain of Macrophage colony-stimulating factor 1 receptor (Homo sapiens) (P07333 whole entry): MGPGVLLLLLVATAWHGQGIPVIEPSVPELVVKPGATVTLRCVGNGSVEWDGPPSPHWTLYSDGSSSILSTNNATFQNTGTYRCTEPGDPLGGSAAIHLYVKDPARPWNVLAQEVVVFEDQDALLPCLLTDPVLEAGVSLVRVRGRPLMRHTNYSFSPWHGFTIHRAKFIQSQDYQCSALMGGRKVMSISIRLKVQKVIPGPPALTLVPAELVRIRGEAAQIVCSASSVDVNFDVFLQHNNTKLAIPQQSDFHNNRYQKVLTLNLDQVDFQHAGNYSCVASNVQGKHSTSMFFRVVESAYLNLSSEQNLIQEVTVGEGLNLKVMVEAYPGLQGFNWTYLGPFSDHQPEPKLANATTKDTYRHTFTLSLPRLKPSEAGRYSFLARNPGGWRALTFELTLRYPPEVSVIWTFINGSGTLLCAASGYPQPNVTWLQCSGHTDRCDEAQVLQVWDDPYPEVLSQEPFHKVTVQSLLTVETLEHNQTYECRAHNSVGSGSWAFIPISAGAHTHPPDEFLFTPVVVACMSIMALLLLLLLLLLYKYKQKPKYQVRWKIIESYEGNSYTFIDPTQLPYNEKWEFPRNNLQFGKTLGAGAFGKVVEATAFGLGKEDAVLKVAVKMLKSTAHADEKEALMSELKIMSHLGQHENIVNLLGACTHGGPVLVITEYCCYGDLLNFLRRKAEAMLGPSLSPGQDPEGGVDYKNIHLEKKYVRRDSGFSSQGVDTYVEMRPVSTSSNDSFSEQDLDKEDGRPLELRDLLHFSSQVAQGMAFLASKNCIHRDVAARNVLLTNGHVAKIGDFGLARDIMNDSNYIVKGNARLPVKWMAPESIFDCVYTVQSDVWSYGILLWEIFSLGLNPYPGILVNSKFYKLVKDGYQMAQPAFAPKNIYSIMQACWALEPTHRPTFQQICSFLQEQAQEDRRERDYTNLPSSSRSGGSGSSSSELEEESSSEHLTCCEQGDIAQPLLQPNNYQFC
Chain of Serine/threonine-protein kinase BRSK2 (Homo sapiens) (Q8IWQ3 whole entry): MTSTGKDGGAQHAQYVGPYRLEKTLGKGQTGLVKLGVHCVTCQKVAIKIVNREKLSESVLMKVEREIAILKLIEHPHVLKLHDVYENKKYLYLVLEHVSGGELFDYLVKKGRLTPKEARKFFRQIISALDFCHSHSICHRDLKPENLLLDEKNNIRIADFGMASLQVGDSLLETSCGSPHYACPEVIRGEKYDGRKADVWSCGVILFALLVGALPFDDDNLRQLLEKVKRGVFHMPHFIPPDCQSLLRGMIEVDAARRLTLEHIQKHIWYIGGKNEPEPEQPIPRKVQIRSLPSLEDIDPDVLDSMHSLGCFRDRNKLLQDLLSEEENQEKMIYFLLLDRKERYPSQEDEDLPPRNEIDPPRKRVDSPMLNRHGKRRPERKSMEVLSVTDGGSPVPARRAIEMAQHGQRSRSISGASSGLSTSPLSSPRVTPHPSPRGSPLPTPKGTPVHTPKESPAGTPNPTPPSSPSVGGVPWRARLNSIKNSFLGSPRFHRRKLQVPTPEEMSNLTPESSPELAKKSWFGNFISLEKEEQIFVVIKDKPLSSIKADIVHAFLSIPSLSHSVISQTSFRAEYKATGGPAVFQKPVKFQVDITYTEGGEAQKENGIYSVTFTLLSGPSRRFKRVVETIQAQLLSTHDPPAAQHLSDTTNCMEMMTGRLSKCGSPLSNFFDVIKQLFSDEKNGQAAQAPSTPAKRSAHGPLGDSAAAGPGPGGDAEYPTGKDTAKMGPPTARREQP
Chain of Cyclin-dependent kinase 4 (Homo sapiens) (P11802 whole entry): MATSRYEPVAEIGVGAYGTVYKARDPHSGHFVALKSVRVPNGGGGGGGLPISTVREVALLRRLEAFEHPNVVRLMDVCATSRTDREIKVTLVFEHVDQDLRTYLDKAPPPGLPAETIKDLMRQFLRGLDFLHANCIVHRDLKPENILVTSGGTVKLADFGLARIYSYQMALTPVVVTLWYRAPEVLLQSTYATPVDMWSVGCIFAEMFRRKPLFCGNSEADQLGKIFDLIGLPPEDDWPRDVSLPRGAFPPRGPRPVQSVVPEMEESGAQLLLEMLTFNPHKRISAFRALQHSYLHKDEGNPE

C[C@H](c1ccc(F)cc1)N(Cc1cccc(C(=O)O)c1)C(=O)c1cnc2ccccc2c1 [PF-05105679]
active: inhibition (Rattus norvegicus) 70% | residual activity [38] 0%
inactive: residual activity [1] 99% | residual activity [2] 97% | residual activity [3] 100% | residual activity [4] 100% | residual activity [5] 96% | inhibition [6] -1.68% | inhibition [7] 20.2% | residual activity [8] 100% | residual activity [9] 100% | residual activity [10] 98% | residual activity [11] 100% | residual activity [12] 100% | residual activity [13] 100% | residual activity [14] 86% | residual activity [15] 100% | inhibition [16] 20% | residual activity [17] 100% | residual activity [18] 84% | residual activity [19] 96% | inhibition [20] 0.7% | residual activity [21] 100% | residual activity [22] 98% | residual activity [23] 85% | residual activity [24] 91% | residual activity [25] 100% | residual activity [26] 93% | residual activity [27] 96% | residual activity [28] 100% | residual activity [29] 79% | residual activity [30] 99% | residual activity [31] 100% | residual activity [32] 100% | residual activity [33] 100% | residual activity [34] 100% | residual activity [35] 90% | residual activity [36] 100% | residual activity [37] 100% | residual activity [39] 82%
